Assay results reported in patent publication US7858790B2, “Modulators of muscarinic receptors” (Vertex Pharmaceuticals Incorporated, priority 2006, dated 2010).

What was measured:
M4 muscarinic receptor = biological target: T1, M4 muscarinic receptor (Homo sapiens, UniProt P08173); experiment: Functional mobilization of intracellular calcium (FLIPR) in CHO cells expressing M4 muscarinic receptor; format: cell-based; details: for Emax: CHO, 100% efficacy is the maximum response obtained with the Carbachol control; for M4 Activity: CHO cells expressing M4, calcium mobilization
T1 construct: expressed in transfected cells; host or cells: CHO (M4-CHO recombinant cell line)
T1 sequence (P08173 1-479): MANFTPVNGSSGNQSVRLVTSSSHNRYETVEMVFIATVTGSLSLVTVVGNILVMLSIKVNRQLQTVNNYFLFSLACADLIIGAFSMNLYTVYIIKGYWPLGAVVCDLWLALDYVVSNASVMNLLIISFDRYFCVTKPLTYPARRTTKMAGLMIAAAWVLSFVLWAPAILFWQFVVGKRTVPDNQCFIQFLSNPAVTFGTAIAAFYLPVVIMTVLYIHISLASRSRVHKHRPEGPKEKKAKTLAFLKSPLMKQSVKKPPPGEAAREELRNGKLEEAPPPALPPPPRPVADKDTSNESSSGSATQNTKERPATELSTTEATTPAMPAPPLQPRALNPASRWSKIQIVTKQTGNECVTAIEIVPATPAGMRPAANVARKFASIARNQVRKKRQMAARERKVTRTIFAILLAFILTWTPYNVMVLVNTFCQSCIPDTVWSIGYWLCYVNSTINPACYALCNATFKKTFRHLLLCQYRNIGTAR
Procedure, shortened: (§1)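 CHO cells loaded with Fluo-3 or Calcium 3 dye in pH 7.4 bath buffer with 1 mM probenecid, 0.5% DMSO. Agonist mode: compound added directly; inhibition mode: 15 min pre-incubation, then carbachol at EC80 (or co-application). Fluorescence recorded 60 s on FLIPR; efficacy relative to carbachol maximum.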

M1 muscarinic receptor = biological target: T2, M1 muscarinic receptor (Homo sapiens, UniProt P11229); experiment: Functional mobilization of intracellular calcium (FLIPR) in CHO cells expressing M1 muscarinic receptor; format: cell-based; details: for Emax: CHO, 100% efficacy is the maximum response obtained with the Carbachol control; for M1 Activity: CHO cells expressing M1, calcium mobilization
T2 construct: expressed in transfected cells; host or cells: CHO (M1-CHO recombinant cell line)
T2 sequence (P11229 1-460): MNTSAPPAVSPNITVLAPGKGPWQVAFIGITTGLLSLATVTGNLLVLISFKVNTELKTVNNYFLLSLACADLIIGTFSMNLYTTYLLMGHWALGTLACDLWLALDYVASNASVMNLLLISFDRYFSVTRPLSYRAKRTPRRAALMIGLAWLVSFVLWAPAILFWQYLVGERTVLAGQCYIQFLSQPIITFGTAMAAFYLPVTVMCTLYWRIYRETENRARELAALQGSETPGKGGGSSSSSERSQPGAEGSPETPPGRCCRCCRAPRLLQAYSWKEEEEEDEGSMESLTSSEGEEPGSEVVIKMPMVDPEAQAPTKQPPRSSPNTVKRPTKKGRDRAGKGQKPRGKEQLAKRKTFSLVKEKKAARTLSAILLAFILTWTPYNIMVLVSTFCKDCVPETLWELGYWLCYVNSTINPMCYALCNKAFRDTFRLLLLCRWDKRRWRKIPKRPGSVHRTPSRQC
Procedure, shortened: as §1

For `CCC(CC)NC(=O)C1=CC2(CCN(C3C[C@@H]4CC[C@@H]3C4)CC2)c2ccccc21` (stereo in doubt) [Compound No. 14, 1′-(bicyclo[2.2.1]heptan-2-yl)-N-(pentan-3-yl)spiro[indene-1,4′-piperidine]-3-carboxamide], the Emax (M4 muscarinic receptor) was 25 to 100% and the Emax (M1 muscarinic receptor) was < 25%.

For `CN(C)C(=O)C1=CC2(CCN(CCC(C)(C)C)CC2)c2ccccc21` [compound 56], the “M4 Activity” value (M4 muscarinic receptor) was “+++ (activity was measured to be less than 2.0 μM)”, the Emax (M4 muscarinic receptor) was 25 to 100% and the “M1 Activity” value (M1 muscarinic receptor) was “+ (activity was measured to be greater than 10.0 μM)”. The Emax (M1 muscarinic receptor) was < 25%.

For `CNC(=O)C1=CC2(CCN(CC3CCCCC3)CC2)c2ccccc21` [Compound No. 6], the “M4 Activity” value (M4 muscarinic receptor) was “+++ (activity was measured to be less than 2.0 μM)”, the Emax (M4 muscarinic receptor) was 25 to 100% and the “M1 Activity” value (M1 muscarinic receptor) was “+ (activity was measured to be greater than 10.0 μM)”. It also gave an Emax (M1 muscarinic receptor) of 25 to 100%.

In the case of `CCC(CC)NC(=O)C1=CC2(CCN(CCC3CCSCC3)CC2)c2ccccc21` [compound 76], the “M4 Activity” value (M4 muscarinic receptor) is reported as “+ (activity was measured to be greater than 10.0 μM)”, the Emax (M4 muscarinic receptor) is reported as < 25% and the “M1 Activity” value (M1 muscarinic receptor) is reported as “+ (activity was measured to be greater than 10.0 μM)”. For the same molecule, the Emax (M1 muscarinic receptor) was < 25%.

With `CN(C)C(=O)C1=CCC2(CCN(C3C[C@@H]4CC[C@@H]3C4)CC2)c2ccccc21` (stereo partly shown) [compound 74] the “M4 Activity” value (M4 muscarinic receptor) was “++ (activity was measured to be from 2.0 μM to 10.0 μM)”, the Emax (M4 muscarinic receptor) was < 25% and the “M1 Activity” value (M1 muscarinic receptor) was “+ (activity was measured to be greater than 10.0 μM)”. For the same molecule, the Emax (M1 muscarinic receptor) was < 25%.

`CCC(CC)NC(=O)C1=CC2(CCN(CCC(C)(C)C)CC2)c2ccccc21` [compound 39] was tested, and the “M4 Activity” value (M4 muscarinic receptor) was “++ (activity was measured to be from 2.0 μM to 10.0 μM)”, the Emax (M4 muscarinic receptor) was 25 to 100% and the “M1 Activity” value (M1 muscarinic receptor) was “+ (activity was measured to be greater than 10.0 μM)”. For the same molecule, the Emax (M1 muscarinic receptor) was < 25%.

With `CCOC(=O)N1CCC(N2CCC3(C=C(C(=O)N(C)C)c4ccccc43)CC2)CC1` [compound 60] the “M4 Activity” value (M4 muscarinic receptor) was “+++ (activity was measured to be less than 2.0 μM)”, the Emax (M4 muscarinic receptor) was 25 to 100% and the “M1 Activity” value (M1 muscarinic receptor) was “+++ (activity was measured to be less than 2.0 μM)”. For the same molecule, the Emax (M1 muscarinic receptor) was 25 to 100%.

With `CC(C)NC(=O)C1=CC2(CCN(CC3CC4C=CC3C4)CC2)c2ccccc21` (stereo not shown) [compound 66] the “M4 Activity” value (M4 muscarinic receptor) was “+++ (activity was measured to be less than 2.0 μM)”, the Emax (M4 muscarinic receptor) was 25 to 100% and the “M1 Activity” value (M1 muscarinic receptor) was “+ (activity was measured to be greater than 10.0 μM)”. The Emax (M1 muscarinic receptor) was < 25%.

`CN(C)C(=O)C1=CCC2(CCN(CCC(C)(C)C)CC2)c2ccccc21` [compound 46] was tested, and the “M4 Activity” value (M4 muscarinic receptor) was “+++ (activity was measured to be less than 2.0 μM)”, the Emax (M4 muscarinic receptor) was 25 to 100% and the “M1 Activity” value (M1 muscarinic receptor) was “++ (activity was measured to be from 2.0 μM to 10.0 μM)”. The Emax (M1 muscarinic receptor) was 25 to 100%.

With `CCOC(=O)N1C2CCC1CC(N1CCC3(C=C(C(=O)NC(CC)CC)c4ccccc43)CC1)C2` (stereo not shown) [compound 75] the “M4 Activity” value (M4 muscarinic receptor) was “+++ (activity was measured to be less than 2.0 μM)”, the Emax (M4 muscarinic receptor) was 25 to 100% and the “M1 Activity” value (M1 muscarinic receptor) was “++ (activity was measured to be from 2.0 μM to 10.0 μM)”. The Emax (M1 muscarinic receptor) was 25 to 100%.

With `CC(C)(C)CCN1CCC2(C=C(C(=O)O)c3ccccc32)CC1` [Compound No. 20, 1′-(3,3-dimethylbutyl)spiro[indene-1,4′-piperidine]-3-carboxylic acid] the “M4 Activity” value (M4 muscarinic receptor) was “+++ (activity was measured to be less than 2.0 μM)”, the Emax (M4 muscarinic receptor) was < 25% and the “M1 Activity” value (M1 muscarinic receptor) was “+ (activity was measured to be greater than 10.0 μM)”. For the same molecule, the Emax (M1 muscarinic receptor) was < 25%.

`CC(C)(C)CCN1CCC2(C=C(C(=O)NC3CCCCC3)c3ccccc32)CC1` [compound 25] was tested, and the “M4 Activity” value (M4 muscarinic receptor) was “+ (activity was measured to be greater than 10.0 μM)”, the Emax (M4 muscarinic receptor) was < 25% and the “M1 Activity” value (M1 muscarinic receptor) was “++ (activity was measured to be from 2.0 μM to 10.0 μM)”. It also gave an Emax (M1 muscarinic receptor) of 25 to 100%.
